Earlier results on six compounds are cited in patent US20110028420A1, “Regression of Established Atherosclerotic Plaques, and Treating Sudden-Onset Asthma Attacks, using PARP Inhibitors” (priority 2008, published 2011).

Each structure is given as a SMILES string.

One data set concerns the target T1, PARP1 (Mus musculus, UniProt P11103).
T1 construct: host or cells: cortical neuron cultures
To be noted: cortical neuron cultures; cited from earlier work.

Another data set concerns PARP-2. The following applies: cited from earlier work.
The subject of the next data set is rat. To be noted: cited from earlier work; for Anti-inflammatory effects in gut inflammation: post-injury administration; for Accumulation of poly (ADP-ribose) in ileum and colon: splanchnic artery occlusion-shocked rats, dinitrobenzene sulfonic acid-treated rats.
The next data set deals with mice. To be noted: chronic administration; cited from earlier work.

T1 sequence (P11103 2-1013 limits assumed): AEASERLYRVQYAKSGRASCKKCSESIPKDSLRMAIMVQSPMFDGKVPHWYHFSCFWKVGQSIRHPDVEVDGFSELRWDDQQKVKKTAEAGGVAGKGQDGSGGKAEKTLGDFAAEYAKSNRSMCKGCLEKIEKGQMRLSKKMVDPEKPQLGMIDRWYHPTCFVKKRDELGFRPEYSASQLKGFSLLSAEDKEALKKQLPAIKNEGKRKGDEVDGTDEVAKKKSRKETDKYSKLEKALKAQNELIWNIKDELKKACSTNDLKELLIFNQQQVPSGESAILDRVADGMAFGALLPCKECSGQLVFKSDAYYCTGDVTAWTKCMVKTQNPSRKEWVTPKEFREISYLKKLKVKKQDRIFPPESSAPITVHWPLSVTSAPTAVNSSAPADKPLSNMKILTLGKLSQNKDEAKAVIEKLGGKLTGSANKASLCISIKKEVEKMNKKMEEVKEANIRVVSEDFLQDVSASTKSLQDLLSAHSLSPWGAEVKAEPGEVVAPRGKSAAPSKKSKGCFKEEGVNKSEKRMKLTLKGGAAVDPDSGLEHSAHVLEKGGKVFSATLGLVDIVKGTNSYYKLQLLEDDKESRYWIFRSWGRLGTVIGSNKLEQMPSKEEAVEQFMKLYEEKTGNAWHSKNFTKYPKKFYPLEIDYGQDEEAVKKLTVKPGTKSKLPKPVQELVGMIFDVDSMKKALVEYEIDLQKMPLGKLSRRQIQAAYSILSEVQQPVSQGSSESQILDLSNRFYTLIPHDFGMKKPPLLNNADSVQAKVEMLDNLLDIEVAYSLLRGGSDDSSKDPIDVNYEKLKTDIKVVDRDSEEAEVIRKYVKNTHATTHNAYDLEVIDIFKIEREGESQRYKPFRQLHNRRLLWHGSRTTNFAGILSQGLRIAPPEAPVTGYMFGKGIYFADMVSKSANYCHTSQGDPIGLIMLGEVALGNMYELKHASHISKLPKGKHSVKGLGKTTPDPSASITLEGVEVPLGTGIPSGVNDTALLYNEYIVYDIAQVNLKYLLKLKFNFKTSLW

For the compound `O=C1NCCc2c(OCCCCN3CCCCC3)cccc21` [3,4-dihydro-5-[4-(1-piperidinyl)butoxy]-1(2H)-isoquinolinone], the “Induced PARP1 activation” value on PARP1 is on record as “inhibited”. Consider `O=C(Oc1cccc2cnccc12)c1ccccc1` [5-benzoyloxyisoquinoline], for which, in the data set on PARP-2, the “Selectivity for the PARP-2 isotype over the PARP-1 isotype” value is 60 fold. On to `CN1CCN(Cc2ccc3c(c2)-c2n[nH]c(=O)c4cccc(c24)O3)CC1` [GPI 15427, 10-(4-methyl-piperazin-1-ylmethyl)-2H-7-oxa-1,2-diaza-benzo[de]anthracen-3-one], for which, in the data set with rat, the “Anti-inflammatory effects in gut inflammation” value was “potent anti-inflammatory effects”; the “Accumulation of poly (ADP-ribose) in ileum and colon” value is reported as “diminished”. As to `CN1CCN(c2ccc3[nH]c(=O)c4ccccc4c3n2)CC1` [GPI 16539, 2-(4-methyl-piperazin-1-yl)-5H-benzo[c][1,5]naphthyridin-6-one], in the data set with rat, the “Anti-inflammatory effects in gut inflammation” value was “potent anti-inflammatory effects”; the “Accumulation of poly (ADP-ribose) in ileum and colon” value is recorded as “diminished”. With `CN(C)CC(=O)Nc1ccc2[nH]c(=O)c3ccccc3c2c1` [PJ34], in the data set on mice, the “Plaque formation in atherosclerosis” value was “markedly decreased”. For `CN(C)[C@@H]1C(O)=C(C(N)=O)C(=O)[C@@]2(O)C(O)=C3C(=O)c4c(O)ccc(Cl)c4[C@@H](O)[C@H]3C[C@@H]12` [demeclocycline], the “Rank order of potency of tetracycline derivatives” value on PARP1 is “minocycline>doxycycline>demeclocycline>chlortetracycline”.
